# Patent US20110319431A1, “Bis Aromatic Compounds for Use as LTC4 Synthase Inhibitors” (BIOLIPOX AB, priority 2009, published 2011)
# Molecular target: T1, Recombinant human LTC4 synthase (Homo sapiens, UniProt Q16873)
# T1 construct: made in house; host or cells: Pichia pastoris
# T1 sequence (Q16873 1-150): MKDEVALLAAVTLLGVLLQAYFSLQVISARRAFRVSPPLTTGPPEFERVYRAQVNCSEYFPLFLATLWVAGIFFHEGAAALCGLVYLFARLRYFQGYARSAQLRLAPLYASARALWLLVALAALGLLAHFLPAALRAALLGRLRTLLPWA
# Experiment: In vitro LTC4 synthase assay (LTA4 to LTC4, HTRF detection)
# Assay type: biochemical
# Details: for inhibition at 10 µM: 5 min, total concentration of title compounds in the assay 10 μM; for IC50: title compounds of the Examples
# Method: In the assay, LTC4 synthase catalyses the reaction where the substrate LTA4 is converted to LTC4. Recombinant human LTC4 synthase is expressed in Piccia pastoralis and the purified enzyme is dissolved in 25 mM tris-buffer pH 7.8 supplemented with 0.1 mM glutathione (GSH) and stored at −80° C. The assay is performed in phosphate buffered saline (PBS) pH 7.4 and 5 mM GSH in 384-well plates.
# The following is added chronologically to each well:
# 1. 48 μL LTC4 synthase in PBS with 5 mM GSH. The total protein concentration in this solution is 0.5 μg/mL. 2. 1 μL inhibitor in DMSO (final concentration 10 μM). 3. Incubation of the plate at room temperature for 10 min. 4. 1 μL LTA4 (final concentration 2.5 μM). 5. Incubation of the plate at room temperature for 5 min. 6. 10 μL of the incubation mixture is analysed using homogenous time resolved fluorescent (HTRF) detection.
inhibition at 10 µM [%],IC50 [µM],Compound
100,0.107,"CN(c1ccc(Cl)cc1)c1ccc(C(=O)c2ccc([S+]([O-])c3ccc(F)c(F)c3)c(C(=O)O)c2)cc1 (centres unmarked) [1:3, 5-{4-[(4-Chlorophenyl)(methyl)amino]benzoyl}2-(3,4-difluorophenylsulfinyl)-benzoic acid]"
,0.161,"CN(c1ccc(Cl)cc1)c1ccc(C(=O)c2ccc([S+]([O-])C3CCCC3)c(C(=O)O)c2)cc1 (centres unmarked) [1:4, 5-{4-[(4-Chlorophenyl)(methyl)amino]benzoyl}-2-(cyclopentylsulfinyl)benzoic acid]"
,0.134,"CN(c1ccc(Cl)cc1)c1ccc(C(=O)c2ccc([S+]([O-])C3CCCCC3)c(C(=O)O)c2)cc1 (centres unmarked) [1:5, 5-{4-[(4-Chlorophenyl)(methyl)amino]benzoyl}-2-(cyclohexylsulfinyl)benzoic acid]"
,0.096,"CN(c1ccc(Cl)cc1)c1ccc(C(=O)c2ccc([S+]([O-])C34CC5CC(CC(C5)C3)C4)c(C(=O)O)c2)cc1 (centres unmarked) [1:6, 2-(1-Adamantylsulfinyl)-5-{4-[(4-chlorophenyl)methylamino]benzoyl}benzoic acid]"
,0.16,"CCCC[S+]([O-])c1ccc(C(=O)c2ccc(N(C)c3ccc(Cl)cc3)cc2)cc1C(=O)O (centres unmarked) [1:7, 2-(1-Butylsulfinyl)-5-{4-[(4-chlorophenyl)(methyl)amino]benzoyl}benzoic acid]"
,0.082,"CN(c1ccc(Cl)cc1)c1ccc(C(=O)c2ccc([S+]([O-])c3ccccc3)c(C(=O)O)c2)cc1 (centres unmarked) [1:8, 5-{4-[(4-Chlorophenyl)(methyl)amino]benzoyl}-2-(phenylsulfinyl)benzoic acid]"
,0.109,"CN(c1ccc(Cl)cc1)c1ccc(C(=O)c2ccc([S+]([O-])Cc3ccccc3)c(C(=O)O)c2)cc1 (centres unmarked) [1:9, 2-(Benzylsulfinyl)-5-{4-[(4-chlorophenyl)(methyl)amino]benzoyl}benzoic acid]"
,0.086,"CN(c1ccc(Cl)cc1)c1ccc(C(=O)c2ccc([S+]([O-])CC34CCC(CC3O)C4(C)C)c(C(=O)O)c2)cc1 (centres unmarked) [1:10, 5-{4-[(4-Chlorophenyl)(methyl)amino]benzoyl}-2-[(2-hydroxy-7,7-dimethyl-bicyclo[2.2.1]-1-heptyl)methylsulfinyl]benzoic acid]"
,0.028,"O=C(c1ccc([S+]([O-])c2cccc(C(F)(F)F)c2)c(C(=O)O)c1)c1ccc(N(CC2CC2)c2ccc(Cl)cc2)cn1 (centres unmarked) [1:15, 5-{5-[(4-Chlorophenyl)cyclopropylmethylamino]pyridine-2-carbonyl}-2-(3-tri-fluoromethylphenylsulfinyl)benzoic acid]"
,0.035,"CCCCCC[S+]([O-])c1ccc(C(=O)c2ccc(N(CC3CC3)c3ccc(Cl)cc3)cn2)cc1C(=O)O (centres unmarked) [1:16, 5-{5-[(4-Chlorophenyl)cyclopropylmethylamino]pyridine-2-carbonyl}-2-(1-hexyl-sulfinyl)benzoic acid]"
,0.034,"O=C(c1ccc([S+]([O-])c2ccc(Br)cc2)c(C(=O)O)c1)c1ccc(N(CC2CC2)c2ccc(Cl)cc2)cn1 (centres unmarked) [1:17, 2-(4-Bromophenylsulfinyl)-5-{5-[(4-chlorophenyl)cyclopropylmethylamino]-pyridine-2-carbonyl}benzoic acid]"
,0.031,"O=C(c1ccc([S+]([O-])c2cccc(Cl)c2)c(C(=O)O)c1)c1ccc(N(CC2CC2)c2ccc(Cl)cc2)cn1 (centres unmarked) [1:18, 2-(3-Chlorophenylsulfinyl)-5-{5-[(4-chlorophenyl)cyclopropylmethylamino]-pyridine-2-carbonyl}benzoic acid]"
96,0.051,"CN(c1ccc(Cl)cc1)c1ccc(C(=O)c2ccc(Sc3ccc(F)c(F)c3)c(C(=O)O)c2)cc1 [2:3, 5-{4-[(4-Chlorophenyl)(methyl)amino]benzoyl}-2-(3,4-difluorophenyl-sulfanyl)benzoic acid]"
,0.13,"CN(c1ccc(Cl)cc1)c1ccc(C(=O)c2ccc(SCC34CCC(CC3O)C4(C)C)c(C(=O)O)c2)cc1 (centres unmarked) [2:4, 5-{4-[(4-Chlorophenyl)methylamino]benzoyl}-2-(2-hydroxy-7,7-dimethyl-bicyclo[2.2.1]-1-heptylmethylsulfanyl)benzoic acid]"
,0.129,CCCCCCSc1ccc(C(=O)c2ccc(N(C)c3ccc(Cl)cc3)cn2)cc1C(=O)O [2:5]
,0.047,CN(c1ccc(Cl)cc1)c1ccc(C(=O)c2ccc(Sc3ccc(F)c(F)c3)c(C(=O)O)c2)nc1 [2:6]
,0.074,"O=C(c1ccc(N(CC2CC2)c2ccc(Cl)cc2)cc1)c1ccc(Sc2ccccc2)c(C(=O)O)c1 [2:8, 5-{4-[(4-Chlorophenyl)cyclopropylmethylamino]benzoyl}-2-phenylsulfanyl-benzoic acid]"

inhibition at 10 µM [%],IC50 [µM],Compound
,0.074,"O=C(c1ccc(Sc2ccc(Cl)cc2)c(C(=O)O)c1)c1ccc(N(CC2CC2)c2ccc(Cl)cc2)cn1 [2:9, 5-{5-[(4-Chlorophenyl)cyclopropylmethylamino]pyridine-2-carbonyl}-2-(4-chlorophenylsulfanyl)benzoic acid]"
,0.022,"O=C(c1ccc(Sc2ccccc2Cl)c(C(=O)O)c1)c1ccc(N(CC2CC2)c2ccc(Cl)cc2)cn1 [2:10, 5-{5-[(4-Chlorophenyl)cyclopropylmethylamino]pyridine-2-carbonyl}-2-(2-chlorophenylsulfanyl)benzoic acid]"
,0.046,"O=C(c1ccc(Sc2ccc(F)cc2)c(C(=O)O)c1)c1ccc(N(CC2CC2)c2ccc(Cl)cc2)cn1 [2:11, 5-{5-[(4-Chlorophenyl)cyclopropylmethylamino]pyridine-2-carbonyl}-2-(4-fluorophenylsulfanyl)benzoic acid]"
,0.076,"O=C(c1ccc(Sc2cccc(C(F)(F)F)c2)c(C(=O)O)c1)c1ccc(N(CC2CC2)c2ccc(Cl)cc2)cn1 [2:12, 5-{5-[(4-Chlorophenyl)cyclopropylmethylamino]pyridine-2-carbonyl}-2-(3-trifluoromethylphenylsulfanyl)benzoic acid]"
,0.129,"O=C(c1ccc(Sc2ccc(C(F)(F)F)cc2)c(C(=O)O)c1)c1ccc(N(CC2CC2)c2ccc(Cl)cc2)cn1 [2:13, 5-{5-[(4-Chlorophenyl)cyclopropylmethylamino]pyridine-2-carbonyl}-2-(4-trifluoromethylphenylsulfanyl)benzoic acid]"
,0.047,"O=C(c1ccc(Sc2ccccc2)c(C(=O)O)c1)c1ccc(N(CC2CC2)c2ccc(Cl)cc2)cn1 [2:14, 5-{5-[(4-Chlorophenyl)cyclopropylmethylamino]pyridine-2-carbonyl}-2-phenylsulfanylbenzoic acid]"
,0.096,"CCCCCCSc1ccc(C(=O)c2ccc(N(CC3CC3)c3ccc(Cl)cc3)cn2)cc1C(=O)O [2:15, 5-{5-[(4-Chlorophenyl)cyclopropylmethylamino]pyridine-2-carbonyl}-2-(1-hexylsulfanyl)benzoic acid]"
,0.041,"O=C(c1ccc(Sc2ccc(F)c(F)c2)c(C(=O)O)c1)c1ccc(N(CC2CC2)c2ccc(Cl)cc2)cn1 [2:16, 5-{5-[(4-Chlorophenyl)cyclopropylmethylamino]pyridine-2-carbonyl}-2-(3,4-difluorophenylsulfanyl)benzoic acid]"
,0.102,"O=C(c1ccc(Sc2ccc(Br)cc2)c(C(=O)O)c1)c1ccc(N(CC2CC2)c2ccc(Cl)cc2)cn1 [2:17, 2-(4-Bromophenylsulfanyl)-5-{5-[(4-chlorophenyl)cyclopropylmethyl-amino]pyridine-2-carbonyl}benzoic acid]"
,0.046,"O=C(c1ccc(Sc2cccc(Cl)c2)c(C(=O)O)c1)c1ccc(N(CC2CC2)c2ccc(Cl)cc2)cn1 [2:18, 5-{5-[(4-Chlorophenyl)cyclopropylmethylamino]pyridine-2-carbonyl}-2-(3-chlorophenylsulfanyl)benzoic acid]"
,0.081,"COc1cccc(Sc2ccc(C(=O)c3ccc(N(CC4CC4)c4ccc(Cl)cc4)cn3)cc2C(=O)O)c1 [2:19, 5-{5-[(4-Chlorophenyl)cyclopropylmethylamino]pyridine-2-carbonyl}-2-(3-methoxy-phenylsulfanyl)-benzoic acid]"
,0.085,"COc1ccc(Sc2ccc(C(=O)c3ccc(N(CC4CC4)c4ccc(Cl)cc4)cn3)cc2C(=O)O)cc1 [2:20, 5-{5-[(4-Chlorophenyl)cyclopropylmethylamino]pyridine-2-carbonyl}-2-(4-methoxyphenylsulfanyl)benzoic acid]"
,0.215,"CCCCCCSc1cc(C(=O)O)cc(C(=O)c2ccc(N(C)c3ccc(Cl)cc3)cn2)c1 [2:23, 3-{5-[(4-Chlorophenyl)methylamino]pyridine-2-carbonyl}-5-(1-hexyl)-sulfanylbenzoic acid]"
,0.135,"CN(c1ccc(Cl)cc1)c1ccc(C(=O)c2cc(Sc3ccccc3)cc(C(=O)O)c2)nc1 [2:24, 3-{5-[(4-Chlorophenyl)methylamino]pyridine-2-carbonyl}-5-phenylsulfanyl-benzoic acid]"
,0.143,"COc1cccc(Sc2cc(C(=O)O)cc(C(=O)c3ccc(N(C)c4ccc(Cl)cc4)cc3)c2)c1 [2:25, 3-(4-((4-Chlorophenyl)(methyl)amino)benzoyl)-5-(3-methoxyphenylsulfanyl)benzoic acid]"
,0.165,"CN(c1ccc(Cl)cc1)c1ccc(C(=O)c2cc(Sc3cccc(Cl)c3)cc(C(=O)O)c2)cc1 [2:26, 3-(4-((4-Chlorophenyl)(methyl)amino)benzoyl)-5-(3-chlorophenylsulfanyl)benzoic acid]"
